Tested on: Rhizoctonia solani
Experiment: Mycelial growth test
Assay type: cell-based
Settings: Rhizoctonia solani, 72 h, RS, read-out: Percent Fungus Growth Inhibition
From the text: | RS = Rhizoctonia solani

O=c1c(Cl)nsnc1Oc1cccc(C(F)(F)F)c1 [Compound 44, 3-chloro-5-[(3-trifluoromethyl)phenoxy]-4H--1,2,6-thiadiazin-4-one]
inhibition at 5 ppm: 82% | inhibition at 10 ppm: 80% | inhibition at 20 ppm: 96% | inhibition at 40 ppm: 100%

O=C(O)Cc1ccccc1Oc1nsnc(Cl)c1=O [Compound 45, 3-(2-carboxymethylphenoxy)-5-chloro-4H--1,2,6-thiadiazin-4-one]
inhibition at 5 ppm: 0% | inhibition at 10 ppm: 0% | inhibition at 20 ppm: 13% | inhibition at 40 ppm: 42%

N#CCc1ccc(Oc2nsnc(Cl)c2=O)cc1 [Compound 46, 3-chloro-5-[(4-cyanomethyl)-phenoxy]4H--1,2,6-thiadiazin-4-one]
inhibition at 5 ppm: 27% | inhibition at 10 ppm: 56% | inhibition at 20 ppm: 64% | inhibition at 40 ppm: 100%

CC(=O)c1ccc(Oc2nsnc(Cl)c2=O)cc1 [Compound 47, 3-(4-acetylphenoxy)-5-chloro-4H--1,2,6-thiadiazin-4-one]
inhibition at 5 ppm: 58% | inhibition at 10 ppm: 47% | inhibition at 20 ppm: 69% | inhibition at 40 ppm: 78%

CC(=O)c1cccc(Oc2nsnc(Cl)c2=O)c1 [Compound 48, 3-(3-acetylphenoxy)-5-chloro-4H--1,2,6-thiadiazin-4-one]
inhibition at 5 ppm: 64% | inhibition at 10 ppm: 24% | inhibition at 20 ppm: 64% | inhibition at 40 ppm: 76%

CC(=O)c1ccccc1Oc1nsnc(Cl)c1=O [Compound 49, 3-(2-acetylphenoxy)-5-chloro-4H--1,2,6-thiadiazin-4-one]
inhibition at 5 ppm: 9% | inhibition at 10 ppm: 24% | inhibition at 20 ppm: 42% | inhibition at 40 ppm: 64%

O=C(O)c1ccc(Oc2nsnc(Cl)c2=O)cc1 [Compound 50, 3-(4-carboxyphenoxy)-5-chloro-4H--1,2,6-thiadiazin-4-one]
inhibition at 5 ppm: 42% | inhibition at 10 ppm: 0% | inhibition at 20 ppm: 13% | inhibition at 40 ppm: 47%

COc1ccc(Cl)c(Oc2nsnc(Cl)c2=O)c1 [Compound 51, 3-chloro-5-[(2-chloro-5-methoxy)phenoxy]-4H--1,2,6-thiadiazin-4-one]
inhibition at 5 ppm: 20% | inhibition at 10 ppm: 56% | inhibition at 20 ppm: 82% | inhibition at 40 ppm: 100%

COc1cc(Cl)cc(Oc2nsnc(Cl)c2=O)c1 [Compound 52, 3-chloro-5-[(3-chloro-5-methoxy)phenoxy]-4H--1,2,6-thiadiazin-4-one]
inhibition at 5 ppm: 33% | inhibition at 10 ppm: 64% | inhibition at 20 ppm: 64% | inhibition at 40 ppm: 100%

O=c1c(Cl)nsnc1Oc1ccc([N+](=O)[O-])cc1Cl [Compound 53, 3-chloro-5-(2-chloro-4-nitrophenoxy)-4H--1,2,6-thiadiazin-4-one]
inhibition at 5 ppm: 53% | inhibition at 10 ppm: 53% | inhibition at 20 ppm: 76% | inhibition at 40 ppm: 76%

Cc1cc(Oc2nsnc(Cl)c2=O)ccc1Cl [Compound 54, 3-chloro-5-(4-chloro-3-methylphenoxy)-4H--1,2,6-thiadiazin-4-one]
inhibition at 5 ppm: 38% | inhibition at 10 ppm: 42% | inhibition at 20 ppm: 42% | inhibition at 40 ppm: 71%

Cc1cc(Cl)ccc1Oc1nsnc(Cl)c1=O [Compound 55, 3-chloro-5-(4-chloro-2-methylphenoxy)-4H--1,2,6-thiadiazin-4-one]
inhibition at 5 ppm: 33% | inhibition at 10 ppm: 56% | inhibition at 20 ppm: 31% | inhibition at 40 ppm: 53%

Cc1ccc(Oc2nsnc(Cl)c2=O)c(Br)c1 [Compound 57, 3-[(2-bromo-4-methyl)-phenoxy]-5-chloro-4H--1,2,6-thiadiazin-4-one]
inhibition at 5 ppm: 53% | inhibition at 10 ppm: 69% | inhibition at 20 ppm: 80% | inhibition at 40 ppm: 78%

Cc1cc(Cl)c(Oc2nsnc(Cl)c2=O)cc1C [Compound 58, 3-chloro-5-[(2-chloro-4,5-dimethyl)phenoxy]-4H--1,2,6-thiadiazin-4-one]
inhibition at 5 ppm: 56% | inhibition at 10 ppm: 58% | inhibition at 20 ppm: 53% | inhibition at 40 ppm: 64%

Cc1cc(Oc2nsnc(Cl)c2=O)cc(C)c1Cl [Compound 59, 3-chloro-5-[(4-chloro-3,5-dimethyl)phenoxy]-4H--1,2,6-thiadiazin-4-one]
inhibition at 5 ppm: 33% | inhibition at 10 ppm: 24% | inhibition at 20 ppm: 33% | inhibition at 40 ppm: 69%

Cc1cc(Oc2nsnc(Cl)c2=O)cc(C)c1Br [Compound 60, 3-[(4-bromo-3,5-dimethyl)-phenoxy]-5-chloro-4H--1,2,6-thiadiazin-4-one]
inhibition at 5 ppm: 42% | inhibition at 10 ppm: 31% | inhibition at 20 ppm: 42% | inhibition at 40 ppm: 56%

COc1cc(Oc2nsnc(Cl)c2=O)cc(OC)c1C(C)=O [Compound 61, 3-[(4-acetyl-3,5-dimethoxy)-phenoxy]-5-chloro-4H--1,2,6-thiadiazin-4-one]
inhibition at 5 ppm: 0% | inhibition at 10 ppm: 13% | inhibition at 20 ppm: 33% | inhibition at 40 ppm: 47%
